Legend:
hairless mouse = experiment: Suppression of epidermal proliferation in tape-stripping hyperplasia model, epidermal thickness (H&E); assay type: in vivo; details: tape stripping twice per day for 5 days, 1% applied twice per day for 3 days, compared to the control (vehicle)
Excerpt: Effects on Suppression of Epidermal Proliferation Next, in order to evaluate effects of the K6PC-9P on the skin hyperplasia that is one of the representative skin disorders in the atopic dermatitis, a hyperplasia model where a mouse has overgrown cuticles was established by repeating a tape stripping procedure on a hairless mouse in the Examples according to the present invention. This hyperplasia model was established since the atopic skin has ill-balanced conditions in the epidermal proliferation and differentiation, and particularly has an increased epidermal proliferation level, but has a pattern in which mouse epidermis grows abnormally due to the reduced differentiation level. Accordingly, to recover this ill-balanced condition into a normal state may be considered to be an important point to treat the atopic dermatitis.
Hyperplasia in the back of a hairless mouse was induced by subjecting the tape stripping procedure twice per day for 5 days, and 1% K6PC-9P was applied to the hairless mouse twice per day for 3 days from the third day to fifth day of the induction of the atopic dermatitis. Then, mouse skin tissues were biopsied and fixed into a paraffin wax, and determined for epidermal thickness using a Hematoxylin & Eosin staining method. […]

NC/Nga mouse = experiment: Atopic dermatitis caused by dust mite extract in NC/Nga mouse, ear thickness; assay type: in vivo; details: two kinds of dust mites (D. pteronyssinus, D. farinae), applied to ear dorsal surface 30 minutes before extract, 16 days, FIGS. 2 and 3
Excerpt: Next, an animal model (NC/Nga mouse) where a mouse suffers from atopic dermatitis was used to evaluate an inflammation control effects of the K6PC-9P on the atopic dermatitis. The NC/Nga mouse is a mouse that spontaneously suffers from the dermatitis, and has been proven to be an animal model that is the most suitably used to treat atopic dermatitis. Therefore, The NC/Nga mouse has been widely used in the animal model to evaluate substances that are effective to treat the atopic dermatitis. For this experiment, a dust mite that is a representative inducer factor of the atopic dermatitis was applied to a NC/Nga mouse to induce the dermatitis.
The extract of dust mite (Dermatophagoides pteronyssinus, Dermatophagoides farinae) was commercially available from Woongbee Meditech Co. (Korea), and the dust mite extract was dissolved in 10 mg/ml of phosphate buffered saline (PBS) containing 0.5% Tween 20, and then used herein. NC/Nga mice were bred under conventional breeding conditions, and induced to develop into the atopic dermatitis. […] The […] and K6PC-9 were applied onto the ear dorsal surfaces of the mice 30 minutes before the application of the dust mite extract, and the efficiency of the therapeutic agent was evaluated for a level of an intercurrent disease by measuring a thickness of a mouse ear.

T lymphocyte = experiment: Effects on generation of cytokines in ConA-activated spleen T lymphocyte (ELISA); assay type: cell-based; details: Balb/C mouse spleen cells, ConA 1 μg/ml, pre-treated 30 minutes before, 48 hours, 1, and 20 μM, FIG. 1
Method: First, in order to determine effects of K6PC-9P and K6PC-9 on generation of cytokines in T lymphocyte, spleen T lymphocyte was separated, and then treated with ConA for its activation. […] Accordingly, substances that increase the expression of the Th1 cytokines or suppress the expression of the Th2 cytokines may be useful to treat the atopic dermatitis. In this experiment, the K6PC-9P and K6PC-9 were evaluated for their control abilities to express the Th1 cytokine, interleukin-2, and the Th2 cytokine, interleukin-4.
The mouse spleen was extracted from a Balb/C mouse to separate splenocyte. The separated splenocyte was plated onto a 96-well plate in a density of 1×10^6 cells/ml. Then, T lymphocyte in the splenocyte was activated with ConA (1 μg/ml). The K6PC-9P and K6PC-9 were pre-treated 30 minutes before the treatment with ConA. 48 hours after the treatment with ConA, culture supernatant was collected, and subject to the ELISA (enzyme-linked immunosorbent assay). The ELISA used an ELISA kit from a R&D system, and performed experiments, as follows. However, the method specified later is described as one example, and the method is identical over the entire procedures, but densities of antibodies and standard sample may be slightly varied depending on the kinds of cytokines to be measured. A capture antibody was diluted to a density of 0.6 μg/ml, and transferred to an ELISA plate by 100 μl, and the plate was sealed and kept overnight at a room temperature. The capture antibody was discarded, and the plate was washed three times with a wash buffer (PBS containing 0.05% Tween 20 (pH 7.4)). 200 μl of a blocking buffer (PBS containing 1% BSA, 5% sucrose and 0.05% NaN) was put into plate wells, kept at a room temperature for 1 hour, and then washed three times with a wash buffer. The collected culture supernatant and the standard sample were prepared using a dilution buffer (TBS containing 0.1% BSA and 0.05% Tween 20), put into plate wells, and then kept at a room temperature for 2 hours. The plate was washed three times with a wash buffer, and a biotinylated detection antibody was diluted with a dilution buffer to a density of 200 ng/ml, and then put into the plate wells. 2 hours after the treatment, the plate was washed three times with a wash buffer, and streptavidin HRP was added to the plate, and then kept for 20 minutes. […] When the colors were suitably developed on the plate, the reaction was stopped with a stop solution (1M H2SO4), and its absorbance was measured at wavelengths of 450 nm and 540 nm. A standard curve was plotted using the standard absorbance obtained by subtracting a 540 nm absorbance value from a 450 nm absorbance value, and a density of cytokines to be measured was calculated using the standard absorbance of the culture supernatant.

Row | Structure (SMILES) | growth of the mouse epidermis (epidermal thickness) (hairless mouse) | increase in the thickness of the mouse ear caused by dust mite extract (NC/Nga mouse) | generation of the Th1 cytokine, interleukin-2 (T lymphocyte) | generation of the Th2 cytokine, interleukin-4 (T lymphocyte)
1 | CCCCCCCC(=O)C(CCCCCC)C(=O)NCCOP(=O)(O)O (stereo not shown) [K6PC-9P, N-(ethyl dihydrogenphosphate)-2-hexyl-3-oxo-decanamide] | suppressed significantly | significantly suppresses | increases | decreases
2 | CCCCCCCC(=O)C(CCCCCC)C(=O)NCCO (stereo not shown) [K6PC-9, N-ethanol-2-hexyl-3-oxo-decanamide, reference compound] |  | slight suppression effect | does not affect | does not affect

From US20080161272A1, “Ceramide derivatives, method for preparing the same, and therapeutic agent for treating atopic dermatitis comprising the ceramide derivatives” (Neopharm Co., Ltd., priority 2006, published 2008)
